Here are results for one compound from US11549950B2, “Cryptic metabolites and method for activating silent biosynthetic gene clusters in diverse microorganisms” (The Trustees of Princeton University, priority 2017, dated 2023).

Common to all, as to experiment: Antibacterial bioactivity (MIC) of keratinimicins, Table 1
One assay has as its system S. agalactiae. It is filed as cell-based, Streptococcus agalactiae. On the procedure: (§1) To determine antibacterial and antiviral performance, assays were performed. In one example, antibacterial assays were carried out by Micromyx, LLC in accordance with methods from the Clinical and Laboratory Standards Institute. Minimal inhibitory concentrations were determined with the following strains: S. aureus ATCC 29213, S. aureus MMX 2011, S. pneumoniae ATCC 49619, S. pyogenes MMX 6253, S. agalactiae MMX 6189, E. faecalis ATCC 29212, E. faecalis MMX 486, B. subtilis ATCC 6633, E. coli ATCC 25922, K. pneumoniae MMX 214, P. aeruginosa ATCC 27853, A. baumannii ATCC 19606, V. cholerae BAA-2163, C. difficile ATCC 700057, and B. fragilis ATCC 25285.
(§2) These compounds are bioactive. In some instances, the compounds show activity against gram-positive bacteria. For example, although they may also show activity against gram-negative targets, the bioactivity of Keratinimicin B and C (FIGS. 21B and 21C) were tested against various gram-positive targets.

The test system of another assay is E. faecalis VRE. It is filed as cell-based, Enterococcus faecalis. On the procedure: as §1, §2
For another assay, the system named is E. faecalis VSE. The format is cell-based, Enterococcus faecalis. On the procedure: as §1, §2
For the next assay, the system named is C. difficile. It is filed as cell-based, Clostridium difficile. How it is done:
as §1, §2

The subject of the next assay is S. aureus MSSA. It is filed as cell-based, Staphylococcus aureus. On the procedure: as §1, §2
In another assay the test system is S. aureus MRSA. It is filed as cell-based, Staphylococcus aureus. On the procedure:
as §1, §2

Another assay relates to S. pneumoniae. It is filed as cell-based, Streptococcus pneumoniae. How it is done:
as §1, §2

The test system of another assay is S. pyogenes. It is filed as cell-based, Streptococcus pyogenes. On the procedure: as §1, §2

For `CO[C@H]1[C@H](C)O[C@@H](O[C@@H]2c3ccc(c(Cl)c3)Oc3cc4cc(c3O[C@@H]3O[C@H](CO)[C@@H](O)[C@H](O)[C@H]3O[C@H]3C[C@H](N)[C@@H](O)C(C)O3)Oc3ccc(cc3)[C@@H](O)[C@@H](NC(=O)[C@H](N)c3ccc(O)c(Cl)c3)C(=O)N[C@@H](Cc3ccccc3)C(=O)N[C@H]4C(=O)N[C@H]3C(=O)N[C@@H]2C(=O)N[C@H](C(=O)O)c2cc(O)cc(O)c2-c2cc3ccc2O)C[C@@H]1N` (some centres unmarked) [Keratinimicin B], the “Bioactivity (minimal inhibitory concentration)” value in the assay with S. agalactiae is 1 µg/mL; in the assay on E. faecalis VRE, more than 64 µg/mL; in the assay on E. faecalis VSE it was 4 µg/mL; with C. difficile it was 0.5 µg/mL; with S. aureus MSSA it was 8 µg/mL; in the assay on S. aureus MRSA, 4 µg/mL. In addition, the “Bioactivity (minimal inhibitory concentration)” value is 0.25 µg/mL in the assay on S. pneumoniae and 0.5 µg/mL in the assay on S. pyogenes.
